# From patent publication US6716968B2, “Apoptosis-related compounds and their use” (Peviva AB, priority 1997, dated 2004)
# Ends that are not written are not given here.
# Test system: monoclonal antibody M30
# Assay: ELISA reactivity of synthetic peptides with monoclonal antibody M30
# Assay type: binding, mouse
# Details: SEQ ID NO: 1 set at 100
# From the text: These peptides having the amino acid sequences SEQ ID NO: 2 and 3 have been synthesized, and in an ELISA they bind to the mAb M 30 [relative activity: 100 for SEQ ID NO: 1; 11 for SEQ ID NO: 2; and 8.3 for SEQ ID NO: 3, respectively]. However, these two peptides are not expected to represent cleaved fragments of CK18 specific for apoptosis, since the mAb M 30 cannot bind to CK18 fragments until they expose the neo-epitope having the C-terminal sequence Ala Leu Asp.
# The oligopeptides made in order to illustrate the invention were synthesized using the multipin peptide synthesis approach using polyethylene supports derivatized with an acid handle (Cf. Valerio, R. M., Bray, A. M. and Maeji, N. J. (1994) Multiple peptide synthesis on acid-labile handle derivatized polyethylene supports. Int. J. Peptide Protein Res. 44:158-165.). The synthesis was carried out on detachable pins grafted with hydroxyethylmethacrylate and functionalized with the trifluoroacetic acid-labile Rink amide forming handle. Peptides representing both the N and C terminal truncation series of the sequence EDFNLGDALD (SEQ ID NO:1) and other sequences were synthesized. Peptides were capped with biotin using the tetra peptide linker sequence—SGSG- or —SGSB- (B=βalanine), and attached to streptavidin coated plates in the enzyme-linked immunosorbent assay.
# In order to characterize the MAb M30-epitope chemically, the M30was tested against a large number of synthetic peptides, that were especially made for this purpose.
row,relative activity (binding to mAb M 30 in ELISA),Substance
1,100,EDFNLGDALD [SEQ ID NO: 1]
2,11,EDGEDFNLGDALDSSNSMQT [SEQ ID NO: 2]
3,8.3,LEDGEDFNLGDALDSSNS [SEQ ID NO: 3]

# Same assay, conditions: biotin-capped peptide attached to streptavidin coated plates, ELISA with MAb M30
row,Substance,Absorbance at 405/492 nm
1,DALD (OTHER INFORMATION: Description of Artificial Sequence: epitope from mammalian protein) [Peptide 406],0.1
2,DFNLGDALD (OTHER INFORMATION: Description of Artificial Sequence: epitope from mammalian protein) [Peptide 401],0.62
3,DGEDFNLGDALD (OTHER INFORMATION: Description of Artificial Sequence: epitope from mammalian protein) [Peptide 46],0.77
4,EDFNLGDALD (OTHER INFORMATION: Description of Artificial Sequence: epitope from mammalian protein) [Peptide 301],1.46
5,EDGEDFNLGDALD (OTHER INFORMATION: Description of Artificial Sequence: epitope from mammalian protein) [Peptide 45],1.05
6,FNLGDALD (OTHER INFORMATION: Description of Artificial Sequence: epitope from mammalian protein) [Peptide 402],0.27
7,GDALD (OTHER INFORMATION: Description of Artificial Sequence: epitope from mammalian protein) [Peptide 405],0.1
8,GEDFNLGDALD [47] (OTHER INFORMATION: Description of Artificial Sequence: epitope from mammalian protein) [Peptide 47],1.23
9,GEDFNLGDALD [302] (OTHER INFORMATION: Description of Artificial Sequence: epitope from mammalian protein) [Peptide 302],1.41
10,LEDGEDFNLGDAL (OTHER INFORMATION: Description of Artificial Sequence: epitope from mammalian protein) [Peptide 63],0.05
11,LEDGEDFNLGDALDS (OTHER INFORMATION: Description of Artificial Sequence: epitope from mammalian protein) [Peptide 61],0.1
12,LGDALD (OTHER INFORMATION: Description of Artificial Sequence: epitope from mammalian protein) [Peptide 404],0.1
13,NLGDALD (OTHER INFORMATION: Description of Artificial Sequence: epitope from mammalian protein) [Peptide 403],0.14

# Same assay, conditions: truncation series of Table 1
row,Substance,activity (reactivity with MAb M30) in words
1,EDFNLGDALD [SEQ ID NO: 1],maximal activity
